From paper PMC10198994 (Scientific Reports, 2023)
Counter-ions that a name gives are not always drawn. Like-named read-outs stand apart in the source and are kept apart here. Marks after values point to notes of the source that are not given here.

Experiments:
[1] = Total, sublimation and solvation enthalpies of HCQS in scCO2 from Chrastil, reformulated Chrastil and Bartle et al. model constants; assay type: physicochemical
Source text: In the year 1981, Josef Chrastil presented a model for the solubility of solids/liquids in SCF. The main basis of the model is a solvate complex formulation based on a simple reaction. According to Chrastil, solubility is explained by c2=c2(κ,ρ1,T) , where κ is association number, ρ1 is solvent density (scCO2) and T is temperature. Chrastil proposed Eq. (19)19 c2=ρ1κexpA1+B1/T
In the year 2009, Garlpati and Madras has reformulated Chrastil's model and it is expressed by Eq. (21), where solubility is explained by y2=y2κ^′,ρ1,T , in which κ^′ is association number, ρ1 is solvent density (scCO2) and T is temperature.21 y2=RTρ1/MScFf^∙^κ^′-1expA2+B2/T in Eq. (21), R denotes universal constant of ideal gas, MScF is molecular weight of solvent, f^∗ is reference pressure and A2 and B2 are the Reformulated model constants.
The solute sublimation enthalpy is calculated with Bartle et al., model and it is stated as23 lny2P/Pref=A4+B4/T+C4ρ1-ρref where A4 to C4 are the model constants. Using the constant B4 , sublimation enthalpy is calculated (i.e., ΔsubH=-B4R ).
Solid–liquid model requires enthalpy of fusion, molar volume and melting point of the solute. Enthalpy of fusion is estimated with the help Jain et al.[77], and molar volume of the solute is estimated with the help Immirzi and Perini method. The calculated molar enthalpy and molar volumes are 65,208 J mol^−1 and 3.306 × 10^–4 m^3 mol^−1, respectively. The melting temperature is obtained from the material safety data sheet as 240 °C. From Chrastil's model constant ( B1 ), total enthalpy is calculated ( B1 × R). From Bartle’s model constant ( B4 ), sublimation enthalpy is calculated ( ΔsubH=-B4R ). From the magnitude difference between total and sublimation enthalpies, solvation enthalpy is calculated. Similarly, from reformulated Chrastil's model constant ( B2 ) and Bartle’s model constant ( B4 ), combination solvation enthalpy is calculated. […] This may be due to a smaller number of parameters in the models; on the other hand, the correlating ability of the solvate complex models is quite good. […]

[2] = Static equilibrium solubility of HCQS in supercritical carbon dioxide (UV-vis spectrophotometer); assay type: physicochemical; conditions: for solubility thermodynamic at 1 h: thermodynamic from solid, read-out: Equilibrium solubility, S
Experimental: SCF-solubility of the drugs was experimentally measured via two broad classes of saturated solution-based methods, where solubility measurement can be done either (1) statically or (2) dynamically. […] The solubilities were measured with the help of an equilibrium cell. Thermodynamically, the method employed may be regarded as an isobaric-isothermal method. All the measurements are taken by keeping system temperatures and pressures at the desired value with high precision (i.e., ± 0.1 K and ± 0.1 MPa). Complete details about the equipment and measurement procedures are presented elsewhere[15]–[35]. However, the description of the equipment and the methodology employed in establishing solubility data are briefly presented in this section. The scCO2 is pumped to the equilibrium cell and drug sample and scCO2 are thoroughly mixed and allowed to attain equilibrium. […] To ensure equilibrium solubility, the experiments are performed with fresh samples at various time intervals. […] For each sampling a 600 µL volume saturated sample is collected via a collection valve in a deionized water preloaded sample vial. After discharging of each sample, the sampling valve was cleaned with 1 ml of deionized water. Drug sample solubility is estimated with the following formula:1 y2=ndrug/ndrug+nCO2 where y2 is solubility of the drug in scCO2, ndrug and nCO2 are number of moles of the drug and CO2 in the sampling loop, respectively.
The following formulas are used in data conversion2 ndrug=Cs·Vs/Ms 3 nCO2=V1ρ1/MCO2 where Cs is concentration of the drug in g/L. V1 = 600 × 10^–6 L and Vs = 5 × 10^–3 L are sampling loop and vial volumes, respectively. Ms and MCO2 are drug and CO2 molecular weights, respectively. ρ1 is density of scCO2 at each experimental condition, as presented in Table 2.
Solubility is also described as4 S=CSVs/V1
The solubility and mole fraction relation is described as5 S=ρMs/MCO2y2/1-y2

Enthalpy of sublimation ΔHsub ([1]; Bartle et al., model constant B4): ~89.1^c (approximate value) kJ/mol
Total Enthalpy, ΔHtotal ([1]; Chrastil's model constant B1): 69.80^a kJ/mol
Total Enthalpy, ΔHtotal ([1]; Modified Chrastil's model constant B2): 62.00^b kJ/mol
rise in solubility when temperature is raised from 308 to 338 K ([2]; 12 MPa): 4.6 folds
rise in solubility when temperature is raised from 308 to 338 K ([2]; 27 MPa): 3.8 folds
solubility thermodynamic at 1 h ([2]; supercritical carbon dioxide (scCO2) in an equilibrium cell, scCO2, 308 K, 210 bar): 93.9 µg/mL
solubility thermodynamic at 1 h ([2]; supercritical carbon dioxide (scCO2) in an equilibrium cell, scCO2, 308 K, 270 bar): 132 µg/mL
solubility thermodynamic at 1 h ([2]; supercritical carbon dioxide (scCO2) in an equilibrium cell, scCO2, 318 K, 120 bar): 40.9 µg/mL
solubility thermodynamic at 1 h ([2]; scCO2, 308 K, 150 bar): 35 µg/mL
solubility thermodynamic at 1 h ([2]; scCO2, 308 K, 180 bar): 49.7 µg/mL
solubility thermodynamic at 1 h ([2]; scCO2, 318 K, 150 bar): 80.6 µg/mL
solubility thermodynamic at 1 h ([2]; scCO2, 318 K, 210 bar): 165 µg/mL
solubility thermodynamic at 1 h ([2]; scCO2, 318 K, 240 bar): 210 µg/mL
solubility thermodynamic at 1 h ([2]; scCO2, 328 K, 120 bar): 49.4 µg/mL
solubility thermodynamic at 1 h ([2]; scCO2, 328 K, 150 bar): 103 µg/mL
solubility thermodynamic at 1 h ([2]; scCO2, 328 K, 210 bar): 207 µg/mL
solubility thermodynamic at 1 h ([2]; scCO2, 328 K, 270 bar): 356 µg/mL
solubility thermodynamic at 1 h ([2]; scCO2, 338 K, 120 bar): 53.4 µg/mL
solubility thermodynamic at 1 h ([2]; scCO2, 338 K, 150 bar): 126 µg/mL
solubility thermodynamic at 1 h ([2]; scCO2, 338 K, 180 bar): 182 µg/mL
solubility thermodynamic at 1 h ([2]; scCO2, 338 K, 210 bar): 231 µg/mL
solubility thermodynamic at 1 h ([2]; scCO2, 338 K, 240 bar): 291 µg/mL
solubility thermodynamic at 1 h ([2]; scCO2, 338 K, 270 bar): 426 µg/mL
SMILES: CCN(CCO)CCCC(C)Nc1ccnc2cc(Cl)ccc12 (centres unmarked) [HCQS, Hydroxychloroquine sulfate]
